These results are taken from patent US6599892B2, “7-alkylidene cephalosporanic acid derivatives and methods of using the same” (Research Corporation Technologies, Inc., priority 1994, dated 2003).

As usually defined, the IC50 is the concentration needed to halve the response being measured.

Counter-ions that a name gives are not always drawn.

In assay [1] the target is E. cloacae SC 12368 β-lactamase (Enterobacter cloacae, UniProt P05364). It is filed as biochemical. As to conditions: 10 minute incubation of enzyme and inhibitor; nitrocefin substrate; read-out: IC50 (nM) E. cloacea SC12368. As to the method: (§1) The IC50 value of each compound was determined as follows. Following a 10 minute incubation of a dilute solution of enzyme (2.56 nm) and inhibitor (<0.64 mM), a […] of this incubation mixture was then further diluted into 1 mL nitrocefin solution, and the rate of hydrolysis was measured during a 1 minute period by monitoring the absorbance of nitrocefin as a function of time.

For assay [2], the target named is Class C β-lactamase of Enterobacter cloacae P99 (Enterobacter cloacae, UniProt P05364). It is filed as biochemical. Conditions: for IC50: 10 minute incubation of enzyme and inhibitor, nitrocefin substrate, read-out: IC50 (nM) E. cloacea P99. As to the method: as §1
Assay [3] concerns the target E. coli. W3310 β-lactamase (TEM2) (Escherichia coli, UniProt P62593, Q37K). As to conditions: read-out: IC50 (nM) E. Coli WC3310; 10 minute incubation of enzyme and inhibitor; nitrocefin substrate.

Consider `CC(=O)OCC1=C(C(=O)O)N2C(=O)/C(=C/c3ccccn3)C2SC1` (stereo not shown) [Compound 6e, Sodium salt of ^7-[(Z)-(2′-pyridyl)methylene] cephalosporanic acid], for which the IC50 in assay [1], in assay [2] and in assay [3] was greater than 20000 nM in each case.
Consider `CC(=O)OCC1=C(C(=O)O)N2C(=O)C(=C(Br)Br)C2S(=O)(=O)C1` (stereo not shown) [Compound 7a, Sodium salt of 7-[dibromomethylene] cephalosporanic acid sulfone], for which the IC50 in assay [1], in assay [2] and in assay [3] was greater than 20000 nM throughout.
On to `CC(=O)OCC1=C(C(=O)O)N2C(=O)/C(=C/c3ccccc3)C2S(=O)(=O)C1` (stereo not shown) [Compound 7d, Sodium salt of 7-[(Z)-benzylidene] cephalosporanic acid sulfone], for which the IC50 was 6800 nM in assay [1], 6250 nM in assay [2] and greater than 20000 nM in assay [3].
`CC(=O)/C=C1/C(=O)N2C(C(=O)O)=C(COC(C)=O)CSC12` (stereo not shown) [Compound 6h, Sodium salt of 7-[(Z)-acetylmethylene] cephlosporanic acid]: the IC50 in assay [1], in assay [2] and in assay [3] was greater than 20000 nM in each case.
Consider “Sodium salt of 7-[(Z)-t-butoxymethylene] cephalosporanic acid sulfone [Compound 7g]”, for which the IC50 in assay [1] is 5900 nM; in assay [2] it was 7800 nM.
On to `CC(=O)OCC1=C(C(=O)O)N2C(=O)/C(=C\c3ccccc3)C2S(=O)(=O)C1` (stereo not shown) [Compound 7c, Sodium salt of 7-[(E)-benzylidene] cephalosporanic acid sulfone], for which the half-maximal inhibitory concentration (IC50) in assay [1], in assay [2] and in assay [3] was greater than 20000 nM each time.
Regarding `CC(=O)OCC1=C(C(=O)[O-])N2C(=O)/C(=C/c3ccccn3)C2S(=O)(=O)C1.[Na+]` (stereo not shown) [Compound 7e, Sodium salt of 7-[(Z)-(2′-pyridyl)methylene] cephalosporanic acid sulfone], in assay [1], the 50% inhibitory concentration (IC50) amounted to 25 nM. In assay [2], the “fold increase in activity of sulfone over its sulfide 6e” value is 1300 fold, the “fold increase in activity over tazobactam” value is reported as 20 fold and the IC50 came to 25 nM. Further, the IC50 in assay [3] is 800 nM.
In the case of `CC(=O)OCC1=C(C(=O)O)N2C(=O)/C(=C\Br)C2SC1` (stereo not shown) [Compound 6l, Sodium salt of 7-[(E)-bromomethylene] cephalosporanic acid], the IC50 in assay [1], in assay [2] and in assay [3] was greater than 20000 nM each time.
In the case of `CC(=O)OCC1=C(C(=O)O)N2C(=O)/C(=C/C(C)(C)C)C2S(=O)(=O)C1` (stereo not shown) [Compound 7m, Sodium salt of 7-[(Z)-t-butylmethylene] cephalosporanic acid sulfone], the half-maximal inhibitory concentration (IC50) in assay [1], in assay [2] and in assay [3] was greater than 20000 nM each time.
Regarding `CC(=O)OCC1=C(C(=O)O)N2C(=O)/C(=C/C(C)(C)C)C2SC1` (stereo not shown) [Compound 6m, Sodium salt of 7-[(Z)-t-butylmethylene] cephalosporanic acid], the half-inhibitory concentration (IC50) in assay [1], in assay [2] and in assay [3] was greater than 20000 nM in each case.
In the case of `CC(=O)OCC1=C(C(=O)O)N2C(=O)C(=C(Br)Br)C2SC1` (stereo not shown) [Compound 6a, Sodium salt of 7-[dibromomethylene] cephalosporanic acid], the IC50 in assay [1], in assay [2] and in assay [3] was greater than 20000 nM each time.
With `CC(=O)OCC1=C(C(=O)O)N2C(=O)/C(=C/CO)C2S(=O)(=O)C1` (stereo not shown) [Compound 7j, Sodium salt of 7-[(Z)-hydroxymethylmethylene] cephalosporanic acid sulfone], the concentration for half-maximal inhibition (IC50) in assay [1], in assay [2] and in assay [3] was greater than 20000 nM each time.
Turning to `CC(=O)OCC1=C(C(=O)O)N2C(=O)C(=C(Cl)Cl)C2S(=O)(=O)C1` (stereo not shown) [Compound 7b, Sodium salt of 7-[dichloromethylene] cephalosporanic acid sulfone], the half-maximal inhibitory concentration (IC50) in assay [1] is greater than 20000 nM; in assay [2], greater than 20000 nM; in assay [3], 8300 nM.
For the molecule `CC(=O)OCC1=C(C(=O)O)N2C(=O)/C(=C/C(=O)OC(C)(C)C)C2SC1` (stereo not shown) [Compound 6g, Sodium salt of 7-[(Z)-t-butoxycarbonylmethylene] cephlosporanic acid], the 50% inhibitory concentration (IC50) in assay [1] is greater than 20000 nM; in assay [2], 2500 nM; in assay [3], greater than 20000 nM.
Turning to `CC(=O)OCC1=C(C(=O)O)N2C(=O)C(=C(Cl)Cl)C2SC1` (stereo not shown) [Compound 6b, Sodium salt of 7-[dichloromethylene] cephalosporanic acid], the IC50 in assay [1], in assay [2] and in assay [3] was greater than 20000 nM each time.
In the case of `CC(=O)OCC1=C(C(=O)O)N2C(=O)/C(=C\Br)C2S(=O)(=O)C1` (stereo not shown) [Compound 7l, Sodium salt of 7-(E)-[bromomethylene] cephalosporanic acid sulfone], the half-maximal inhibitory concentration (IC50) in assay [1], in assay [2] and in assay [3] was greater than 20000 nM in each case.
As for `CON(C)C(=O)/C=C1/C(=O)N2C(C(=O)O)=C(COC(C)=O)CSC12` (stereo not shown) [Compound 6k, Sodium of salt of 7-[(Z)-N-methoxy-N-methylamino-carbonylmethylene] cephlosporanic acid], the IC50 in assay [1], in assay [2] and in assay [3] was greater than 20000 nM in each case.
